According to paper PMC9555310, “Novel inhibitors and activity-based probes targeting serine proteases” (Frontiers in Chemistry, 2022):

Legend:
[1] = molecular target: T1, NE (Homo sapiens, UniProt P08246); assay: Activity-based profiling of NE (SDS-PAGE, streptavidin-HRP western blot); type: binding; conditions: 50 μM ABP, 30 min, 37°C; labelling extinguished by heat inactivation of NE
T1 construct: purchased Calbiochem
T1 sequence (P08246 30-267): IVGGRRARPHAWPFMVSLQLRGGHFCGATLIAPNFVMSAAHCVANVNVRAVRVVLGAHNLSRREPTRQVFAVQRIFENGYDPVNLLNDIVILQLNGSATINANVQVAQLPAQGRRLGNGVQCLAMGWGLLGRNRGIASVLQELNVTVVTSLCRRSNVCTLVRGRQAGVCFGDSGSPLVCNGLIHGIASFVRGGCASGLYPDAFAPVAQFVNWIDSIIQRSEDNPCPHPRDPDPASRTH
Experimental: (§1) Samples of recombinant protease (trypsin, plasmin, thrombin, chymotrypsin, or HNE, as indicated in the relevant figure legends) were treated with each of the newly synthesized compounds at a concentration of 50 μM, for 30 min, at 37°C. A control sample (no ABP) was prepared by treating the recombinant protease with solvent vehicle (DMF) only, used to prepare the stock solution of each ABP. Samples were also pre-treated (±90°C for 30 min) before being incubated with each putative ABP. With trypsin and thrombin, further samples were prepared where Z-Arg^P-(OPh)2 or NAP559, respectively, was added 30 min prior to the addition of the ABP under examination. […]
(§2) FIGURE 7 Activity Based Profiling of serine proteases by peptide N-Alkyl glycine carbamates. […] CF Sol (sample 26w) was used at a final concentration of 2.5% (v/v), and the level of NE contained therein was measured using Succinyl-Ala-Ala-Pro-Val-NHMec (50 μM), in the absence (-- o --) and presence (-- o --) of NAP800 (50 μM). […]
(§3) Following transfer, the extra protein binding sites on the membrane were blocked by addition of 3% (w/v) BSA in TBST (20 mM Tris, 137 mM NaCl, 1% (v/v) Tween 20, pH 7.6) and agitated gently at room temperature for 30 minutes. The biotin-labelled proteases were then detected by addition of Streptavidin-HRP (Vector Laboratories) in 3% (w/v) BSA in TBST at a concentration of 1:20000, for 1 hour at room temperature. […]

[2] = molecular target: T2, chymotrypsin (Bos taurus, UniProt P00766); assay: Activity-based profiling of chymotrypsin (SDS-PAGE, streptavidin-HRP western blot); type: binding, bovine; conditions: 50 μM ABP, 30 min, 37°C; blocked by heat inactivation
T2 construct: purchased Sigma-Aldrich (supplement); Calbiochem; host or cells: bovine pancreas
Experimental: as §1, §2, §3

SMILES | labelling of NE by ABP (western blot) [1] | labelling of chymotrypsin by ABP (western blot) [2]
CC(C)N(CC(=O)NCC(=O)NCC(=O)NCCCOCCOCCOCCCNC(=O)CCCCC1SCC2NC(=O)NC21)C(=O)ON1C(=O)CCC1=O (stereo not drawn) [NAP800, Succinimidoyl-CO-NVal-Gly-Gly-PEG-Biotin] | labels a protein band corresponding to the expected molecular size/mass of NE | –
O=C(CCCCC1SCC2NC(=O)NC21)NCCCOCCOCCOCCCNC(=O)CNC(=O)CNC(=O)CN(Cc1ccccc1)C(=O)ON1C(=O)CCC1=O (stereo not drawn) [NAP849, Succinimidoyl-CO-NPhe-Gly-Gly-PEG-Biotin] | – | detection of a strong band corresponding to the molecular weight of chymotrypsin
